Reference: article PMC12469358, “Synthesis of novel phenoxyacetohydrazide compounds and evaluation therapeutic potential exhibit as anti-inflammatory and anti-angiogenic” (PLOS One, 2025)
Converted amounts (≈) assume the structure as drawn. “Also recorded” adds a separate entry of the source. Where two headings read alike, the source gives them in different places.

What was measured:
[1] = system: human red blood cell (HRBC) membrane; test: Human red blood cell (HRBC) membrane stabilization assay; format: cell-based; details: for IC50: Homo sapiens, Erythrocyte
Method: The human red blood cell (HRBC) membrane stabilization method was employed to evaluate the anti-inflammatory activity of the compounds, as previously described. For test the in vitro anti-inflammatory activity of synthesized compounds (6e-h), blood samples were collected from healthy volunteers who had not taken NSAIDs for 14 days. The blood was mixed with an equal volume of sterilized Alsever’s solution, centrifuged at 3000 rpm, and the packed cells were washed with isotonic saline (0.9% w/v NaCl). A 10% cell suspension was then prepared using isotonic saline. The test compounds were dissolved in DMSO to prepare solutions at concentrations of 50, 100, 150, 200, and 250 μg/ml. For each concentration, a mixture containing 1 ml of phosphate buffer, 2 ml of hypotonic saline, and 0.5 ml of the HRBC suspension was prepared. The samples were incubated at 37°C for 30 minutes and centrifuged at 3000 rpm for 20 minutes. The hemoglobin content in the supernatant was determined spectrophotometrically at 560 nm. Indomethacin at the same concentrations (50–250 μg/ml) was used as the reference standard, and a control sample was prepared without the test compounds. The percentage hemolysis was calculated by considering the hemolysis in the control group as 100%. The percentage of HRBC membrane stabilization or protection was determined using the following formula:
percent protection=100−((OD of drug treated sample/OD of control) ×100).

[2] = system: tissue myeloperoxidase (MPO) activity in carrageenan-treated paws; test: Tissue myeloperoxidase (MPO) activity assay; format: in vivo; details: rat, 6e 25 mg/kg, 4 hours after carrageenan
Method: Rats were treated either with or without positive control (indomethacin at 10 mg/kg body weight) or compound 6e (25 mg/kg body weight) 2 hours prior to the injection of carrageenan into the right hind paw. The activity of tissue myeloperoxidase (MPO) was assessed 4 hours post-carrageenan injection. Tissue samples were collected and placed in 0.75 ml of 80 mM phosphate-buffered saline (PBS, pH 5.4) containing 0.5% hexadecyltrimethylammonium bromide (HTAB). The samples were homogenized for 45 seconds at 0°C using a homogenizer. The homogenate was transferred into microfuge tubes, and the homogenizer vessel was rinsed with an additional 0.75 ml of HTAB in PBS. The wash was combined with the homogenate to yield a total sample volume of 1.5 ml, which was then centrifuged at 12,000 × g at 4°C for 15 minutes. For the MPO assay, 30 μl of the resulting supernatant was added to 96-well microtiter plates. To each well, 200 μl of a reaction mixture was added, consisting of 100 μl of 80 mM PBS (pH 5.4), 85 μl of 0.22 M PBS (pH 5.4), and 15 μl of 0.017% hydrogen peroxide. […] Enzyme activity was determined spectrophotometrically by measuring absorbance at 630 nm using a plate reader. Results were expressed as MPO activity per milligram of tissue (MOD/mg tissue). […] All samples were measured in six times (n = 6 technical replicates) for statistical accuracy.

[3] = system: carrageenan-induced paw edema; test: Carrageenan-induced paw edema; format: in vivo; details: rat, 6e 25 mg/kg, 5 h after carrageenan injection
From the text: Female Swiss albino rats were selected for the study to evaluate the anti-inflammatory effects of compound 6e against carrageenan-induced paw edema. The animals were divided randomly into four groups, with each group consisting of six experimental animals (n = 6): • Group 1: Normal animals (untreated). • Group 2: Control group (saline-treated). • Group 3: Positive control group (indomethacin-treated). • Group 4: Animals treated with compound 6e. Prior to the experiment, animals in Group 2 were administered saline (5 mL/kg), animals in Group 3 received the positive control indomethacin (10 mg/kg), and animals in Group 4 were treated with compound 6e (25 mg/kg). All animals were left undisturbed in their respective cages for 2 hours.

[4] = system: alkali burn-induced corneal neovascularization (CNV); test: Alkali burn-induced corneal neovascularization; format: in vivo; details: alkali-burnt cornea
Method: Corneal neovascularization (CNV) was induced through alkali injury following a standard protocol with minor modifications. Swiss albino rats were first examined to ensure the absence of ophthalmic diseases before the alkali burn procedure. The animals were divided into three groups, each comprising six animals (n = 6 per group):
• Group I: Normal, treated with phosphate-buffered saline (PBS). • Group II: Control group, treated with 1 µg of recombinant VEGF (rVEGF). • Group III: Treated group, receiving rVEGF165 ([…]) and compound 6e (5 µg/ml).
An alkali burn was induced in the right eye of animals in Groups II and III after administering general anesthesia via intraperitoneal injection of ketamine (1 ml/kg) and chlorpromazine (1 ml/kg). A 3-mm diameter piece of Whatman filter paper soaked in […] of 1 mol/L NaOH was applied to the center of the cornea for 30 seconds, followed by irrigation of the treated cornea with 60 ml of normal saline.
Group II animals were subsequently treated with 1 µg of rVEGF applied to the right eye. The extent of CNV was quantified through photographic documentation 48 hours after the alkali burn and rVEGF treatment. […] The inhibitory effect of compound 6e on neovascularization was evaluated through photographic documentation 24 hours after treatment with compound 6e.

[5] = system: rVEGF165-induced angiogenesis in CAM explants; test: Ex vivo CAM assay; format: in vivo, chick
[6] = system: rVEGF165-induced angiogenesis in chick chorioallantoic membrane (CAM); test: In vivo chorioallantoic membrane (CAM) assay; details: for H&E staining: neovascular structures and inflammatory infiltration: Fig 23 legend, H&E staining of in vivo CAM
Method: The in vivo CAM assay was performed according to the standard protocol. All the eggs were wiped with 75% alcohol prior to incubation. Then the fertilized eggs were incubated at 37°C with 60% relative humidity. On the 11th day of incubation, all the eggs divided into three treatment groups contain minimum 6 eggs as mentioned below.
• Group I – Normal [PBS (Phosphate buffer saline) (10 mM Sodium phosphate mono basic+ 1.8 mM Sodium phosphate dibasic+140 mM sodium chloride, pH 7.4) alone] • Group II – Control [1µg of rVEGF165 alone] • Group III – 5 µg of 6e + 1 µg of rVEGF165.
A rectangular window was made in the egg shell and Whatman filter paper (3 mm diameter) containing with or without compound 6e (5 µg) was placed on the CAM and the window were sealed using sterile vegetable wrap. Windows were opened after 48h, i.e., on 13th day of incubation, observed by two independent observers and measured for change in the Micro Vessel Density (MVD) in the area beneath the cover slip and photographed using Sony steady shot DSC-W610 camera.

[7] = Table 6 series 6a-h, read-out: HRBC membrane stabilization “IC50” Value
[8] = Table 7, 50-250 µg concentration series, comparison with indomethacin, read-out: “IC50”
[9] = Table 7, 50-250 µg concentration series, comparison with indomethacin

Cc1ccc(OCC(=O)NNC(=O)C2CN(Cc3ccccc3)CCO2)c(C)c1 (centres unmarked) [6d, 4-Benzyl-N’-(2-(2,4-dimethylphenoxy)acetyl)morpholine-2-carbohydrazide]
IC50 [1, 7]: 199 µg/mL (≈ 501 µM)

O=C(COc1ccc(Cl)cc1)NNC(=O)C1CN(Cc2ccccc2)CCO1 (centres unmarked) [6a, 4-Benzyl-N’-(2-(4-chlorophenoxy)acetyl)morpholine-2-carbohydrazide]
IC50 [1, 7]: 311 µg/mL (≈ 770 µM)

CC(C)c1ccc(OCC(=O)NNC(=O)C2CN(Cc3ccccc3)CCO2)c(C(C)C)c1 (centres unmarked) [6f, 4-Benzyl-N’-(2-(2,4-diisopropylphenoxy)acetyl)morpholine-2-carbohydrazide]
IC50 [1, 7]: 301 µg/mL (≈ 664 µM)

O=C(COc1ccc(Br)cc1)NNC(=O)C1CN(Cc2ccccc2)CCO1 (centres unmarked) [6b, 4-Benzyl-N’-(2-(4-bromophenoxy)acetyl)morpholine-2-carbohydrazide]
IC50 [1, 7]: 222 µg/mL (≈ 495 µM)

O=C(CCCOc1ccc(F)cc1)NNC(=O)C1CN(Cc2ccccc2)CCO1 (centres unmarked) [6e, 4-Benzyl-N’-(4-(4-fluorophenoxy)butanoyl)morpholine-2-carbohydrazide]
MPO activity in carrageenan-treated paws [2]: markedly prevented the elevation of MPO activity | paw swelling ratio (percent increase of paw volume) [3]: statistically significant reduction in the paw swelling ratio; also recorded: significantly inhibited the ratio of paw swelling | % Inhibition ([1]; 50 µg): 28.88% | % Inhibition ([1]; 100 µg): 34.13% | % Inhibition ([1]; 150 µg): 42.02% | % Inhibition ([1]; 200 µg): 59.99% | % Inhibition ([1]; 250 µg): 67.86% | IC50 [1, 7]: 155 µg/mL (≈ 373 µM) | IC50 [1, 8]: 164 µg/mL (≈ 395 µM) | “IC50” [1, 9]: 165.988 µg/mL | total vessel length in the rat cornea [4]: diminution in the total vessel length; also recorded: reduction in total vessel length | corneal neovascularization (CNV) ([4]; rat, 6e 5 µg with rVEGF165 10 µg): significant decrease in CNV | VEGF-induced angiogenic response, ex vivo CAM ([5]; co-administration with rVEGF165): Marked suppression of new blood vessel formation; also recorded: effectively inhibited this VEGF-induced angiogenic response in a dose-dependent manner | Total vessel length of ex-vivo CAM ([5]; rVEGF165-induced increase, n = 6): significantly attenuated | rVEGF165-induced angiogenic response / neovascularization, in vivo CAM ([6]; 5 µg 6e + 1 µg rVEGF165, 48 h): inhibited this rVEGF165-induced angiogenic response in a dose-dependent manner; also recorded: Marked suppression of neovascularization | H&E staining: neovascular structures and inflammatory infiltration [6]: minimal inflammatory infiltration and absence of neovessel | Total vessel length of in vivo CAM ([6]; versus control, n = 6): A significant reduction in vessel length

O=C(CCCOc1cccc([N+](=O)[O-])c1)NNC(=O)C1CN(Cc2ccccc2)CCO1 (centres unmarked) [6h, 4-Benzyl-N’-(4-(3-nitrophenoxy)butanoyl)morpholine-2-carbohydrazide]
IC50 [1, 7]: 255 µg/mL (≈ 576 µM)

O=C(CCCOc1ccc(Br)cc1)NNC(=O)C1CN(Cc2ccccc2)CCO1 (centres unmarked) [6g, 4-Benzyl-N’-(4-(4-bromophenoxy)butanoyl)morpholine-2-carbohydrazide]
IC50 [1, 7]: 279 µg/mL (≈ 586 µM)

COc1ccc2c(c1)c(CC(=O)O)c(C)n2C(=O)c1ccc(Cl)cc1 [Indomethacin, reference compound]
% Inhibition ([1]; 50 µg): 33.10% | % Inhibition ([1]; 100 µg): 46.11% | % Inhibition ([1]; 150 µg): 53.99% | % Inhibition ([1]; 200 µg): 64.98% | % Inhibition ([1]; 250 µg): 76.94% | IC50 [1, 8]: 122 µg/mL (≈ 340 µM) | “IC50” [1, 9]: 122.01 µg/mL | H&E staining: neovascular structures and inflammatory infiltration [6]: Moderate reduction in neovascular structures

Cc1ccccc1OCC(=O)NNC(=O)C1CN(Cc2ccccc2)CCO1 (centres unmarked) [6c, 4-Benzyl-N’-(2-(o-tolyloxy)acetyl)morpholine-2-carbohydrazide]
IC50 [1, 7]: 289 µg/mL (≈ 754 µM)
